In PubChem BioAssay AID1963827 (Molecular Pharmacology Branch, DTP, NCI, 2024):
Several values for one entry are separate records, joined by “and”; a condition that tells them apart may be missing. Equal values may be shown once.

Test system: 994946-033-R-J1-PDC complex spheroid viability
Test: Anticancer human tumor 994946-033-R-J1-PDC patient-derived melanoma cell line growth inhibition [POLQ]
Details: for viability, T/C: stronger effect = lower value
Description: Multicellular complex tumor spheroid response to Polymerase (POL) inhibitors (novobiocin, ART-558, RP6685) in combination with a variety of drugs and investigational agents in selected tumor cell lines
The POL inhibitors (novobiocin, ART-558, and RP6685) were evaluated both individually and in combination with standard of care and investigational anticancer small molecules within a complex spheroid model of solid tumors. . Complex spheroids include a stromal component modeled by human endothelial cells (HUVEC) and fibroblasts modeled by human mesenchymal stem cells (MSCs). The concentration ranges selected for each drug and investigational agent were based upon clinically achievable concentrations if the clinical Cmax of the agent was known.
Compounds. The drugs and investigational agents: novobiocin (NSC847541), ART-558 (NSC835418), RP-6685 (NSC848927), peposertib (NSC802822), ceralasertib (NSC780249), elimusertib (NSC800525), camonsertib (NSC841442), AZD-1390 (NSC803789), olaparib (NSC753686), talazoparib (NSC767125), rucaparib (NSC756644), sotorasib (NSC818433), MRTX-1133 (NSC836407), SN-38 (NSC673596), topotecan (NSC609699), epotoside (NSC141540), doxorubicin (NSC123127), gemcitabine (NSC613327), 5-fluorouracil (NSC19893), paclitaxel (NSC125973), vemurafenib (NSC761431), MSA-2 (NSC828583), SN-011 (NSC837082), adavosertib (NSC754352), prexasertib (NSC758257), carboplatin (NSC241240) and oxaliplatin (NSC266046), were obtained from the National Cancer Institute (NCI) Developmental Therapeutics Program Chemical Repository (21). The FDA-approved anticancer drug set is available from the Developmental Therapeutics Program at https://dtp.cancer.gov/organization/dscb/obtaining/. […] The stock solutions were prepared in dimethyl sulfoxide (DMSO, Sigma-Aldrich, St. Louis, MO, cat. D2650), except for the platinum compounds which were prepared in saline (Quality Biological, Gaithersburg, MD, cat. 114-055-101), at 800-fold the tested concentration and stored at -70 degrees C prior to their use. All drugs and investigational agents were tested over a range starting from a high concentration at or near the clinical Cmax and decreasing in half-log increments. If the clinical Cmax for an agent had not been determined, the highest concentration tested was 10 microM, except for SN-38, which was tested at a high concentration of 1 microM.
Cell Culture. All cells were maintained in an incubator at 37 degrees C and 5% CO2 with 95% humidity. The PDC lines were cultured according to standard operating procedures established by the NCI PDMR (https://pdmr.cancer.gov). Table 3 of the manuscript, lists the cell lines along with the number of the three cell types plated to form the mct-spheroids and media for tumor cell growth. After thawing, all PDC lines, except 997537-175-T-J1-PDC and 415267-285-R-J2-PDC, were cultured in Matrigel-coated flasks prepared with a working solution of 1X Ham's F-12 nutrient mix, without supplementation (Thermo Fisher Scientific, cat. 11765054), 100 U/mL penicillin-streptomycin (Thermo Fisher Scientific, cat. 15140122), and 2.5% Matrigel (Corning Inc., Corning, NY, cat. 354248) for the first three passages. The two PDC lines 997537-175-T-J1-PDC and 415267-285-R-J2-PDC were cultured on uncoated flasks. The 857933-349-R-J2-PDC line was cultured in 6C/Colon 1B media containing advanced DMEM/F-12 (Thermo Fisher Scientific, cat. 12634028), 10 mM HEPES (Thermo Fisher Scientific, cat. 15630080), 1X GlutaMAX supplement (Thermo Fisher Scientific, cat. 35050061), 0.1 mg/mL primocin (InvivoGen, San Diego, CA, cat. ant-pm-2), 10% defined fetal bovine serum, heat inactivated (HyClone Laboratories Inc., Logan, UT, cat. SH30070.03HI), 50% L-WRN conditioned media (ATCC, cat. CRL-3276), 1.25 mM N-Acetyl-L-cysteine (Sigma-Aldrich, cat. A9165), 10 mM nicotinamide (Sigma-Aldrich, cat. N0636), 1X B-27 supplement (Thermo Fisher Scientific, cat. 17504044), 1X N-2 supplement (Thermo Fisher Scientific, cat. […]

[1] = curve of first compound, second compound 0.0316 µM
[2] = curve of first compound, second compound 0.1 µM
[3] = curve of first compound, second compound 0.316 µM
[4] = curve of first compound, second compound 1 µM
[5] = curve of first compound, second compound 3.16 µM
[6] = curve of first compound, second compound 10 µM
[7] = second compound 0.0316 µM, first compound 0.0316 µM
[8] = second compound 0.0316 µM, first compound 0.1 µM
[9] = second compound 0.0316 µM, first compound 0.316 µM
[10] = second compound 0.0316 µM, first compound 1 µM
[11] = second compound 0.0316 µM, first compound 3.16 µM
[12] = second compound 0.0316 µM, first compound 10 µM
[13] = second compound 0.1 µM, first compound 0.0316 µM
[14] = second compound 0.1 µM, first compound 0.1 µM
[15] = second compound 0.1 µM, first compound 0.316 µM
[16] = second compound 0.1 µM, first compound 1 µM
[17] = second compound 0.1 µM, first compound 3.16 µM
[18] = second compound 0.1 µM, first compound 10 µM
[19] = second compound 0.316 µM, first compound 0.0316 µM
[20] = second compound 0.316 µM, first compound 0.1 µM
[21] = second compound 0.316 µM, first compound 0.316 µM
[22] = second compound 0.316 µM, first compound 1 µM
[23] = second compound 0.316 µM, first compound 3.16 µM
[24] = second compound 0.316 µM, first compound 10 µM
[25] = second compound 1 µM, first compound 0.0316 µM
[26] = second compound 1 µM, first compound 0.1 µM
[27] = second compound 1 µM, first compound 0.316 µM
[28] = second compound 1 µM, first compound 1 µM
[29] = second compound 1 µM, first compound 3.16 µM
[30] = second compound 1 µM, first compound 10 µM
[31] = second compound 3.16 µM, first compound 0.0316 µM
[32] = second compound 3.16 µM, first compound 0.1 µM
[33] = second compound 3.16 µM, first compound 0.316 µM
[34] = second compound 3.16 µM, first compound 1 µM
[35] = second compound 3.16 µM, first compound 3.16 µM
[36] = second compound 3.16 µM, first compound 10 µM
[37] = second compound 10 µM, first compound 0.0316 µM
[38] = second compound 10 µM, first compound 0.1 µM
[39] = second compound 10 µM, first compound 0.316 µM
[40] = second compound 10 µM, first compound 1 µM
[41] = second compound 10 µM, first compound 3.16 µM
[42] = second compound 10 µM, first compound 10 µM
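Note: spheroids exposed to drugs for 7 days.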
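Throughout, for viability, T/C: 100% = DMSO vehicle treated spheroids.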

Compound: Nc1ccn(C2OC(CO)C(O)C2(F)F)c(=O)n1 (configuration not stated) + Cc1cccc(N(C)C(=O)C2C(O)CCN2c2nc(C)cc(C(F)(F)F)c2C#N)c1
- IC50 [1]: < 0.0316 µM
- IC50 [2]: < 0.0316 µM
- IC50 [3]: < 0.0316 µM
- IC50 [4]: < 0.0316 µM
- IC50 [5]: < 0.0316 µM
- IC50 [6]: < 0.0316 µM
- viability, T/C [7]: 26.7%
- viability, T/C [8]: 6.28%
- viability, T/C [9]: 4.88%
- viability, T/C [10]: 6.63%
- viability, T/C [11]: 3.54%
- viability, T/C [12]: 2.78%
- viability, T/C [13]: 49.3%
- viability, T/C [14]: 5.24%
- viability, T/C [15]: 5.13%
- viability, T/C [16]: 4.71%
- viability, T/C [17]: 4.54%
- viability, T/C [18]: 2.88%
- viability, T/C [19]: 24.7%
- viability, T/C [20]: 5.51%
- viability, T/C [21]: 5.07%
- viability, T/C [22]: 4.92%
- viability, T/C [23]: 4.06%
- viability, T/C [24]: 1.82%
- viability, T/C [25]: 23.1%
- viability, T/C [26]: 7.5%
- viability, T/C [27]: 4.98%
- viability, T/C [28]: 4.8%
- viability, T/C [29]: 4.33%
- viability, T/C [30]: 2.48%
- viability, T/C [31]: 39.7%
- viability, T/C [32]: 6.77%
- viability, T/C [33]: 4.52%
- viability, T/C [34]: 5.28%
- viability, T/C [35]: 4.61%
- viability, T/C [36]: 2.97%
- viability, T/C [37]: 48.6%
- viability, T/C [38]: 13.3%
- viability, T/C [39]: 6.55%
- viability, T/C [40]: 5.55%
- viability, T/C [41]: 5.13%
- viability, T/C [42]: 1.86%

Compound: C#Cc1c(F)ccc2cc(O)cc(-c3ncc4c(N5CC6CCC(C5)N6)nc(OCC56CCCN5CC(F)C6)nc4c3F)c12 (configuration not stated) + Nc1ccc(C#CCN(C(=O)Cc2ncc(C(F)(F)F)cc2C(F)(F)F)c2ccc(F)cc2)nn1
- IC50 [1]: 4.28 µM
- IC50 [2]: 5.46 µM
- IC50 [3]: 5.99 µM
- IC50 [4]: 3.66 µM
- IC50 [5]: 5.38 µM
- IC50 [6]: 5.09 µM
- viability, T/C [7]: 101%
- viability, T/C [8]: 109%
- viability, T/C [9]: 91.9%
- viability, T/C [10]: 82.5%
- viability, T/C [11]: 67.2%
- viability, T/C [12]: 11.7%
- viability, T/C [13]: 90.2%
- viability, T/C [14]: 88.9%
- viability, T/C [15]: 97.8%
- viability, T/C [16]: 74.1%
- viability, T/C [17]: 81%
- viability, T/C [18]: 19.1%
- viability, T/C [19]: 100%
- viability, T/C [20]: 84.7%
- viability, T/C [21]: 74.8%
- viability, T/C [22]: 96.2%
- viability, T/C [23]: 84.1%
- viability, T/C [24]: 22.3%
- viability, T/C [25]: 80.6%
- viability, T/C [26]: 89.8%
- viability, T/C [27]: 90.1%
- viability, T/C [28]: 66.5%
- viability, T/C [29]: 59.8%
- viability, T/C [30]: 5.38%
- viability, T/C [31]: 74.4%
- viability, T/C [32]: 85.1%
- viability, T/C [33]: 102%
- viability, T/C [34]: 79.1%
- viability, T/C [35]: 81.1%
- viability, T/C [36]: 13.7%
- viability, T/C [37]: 80%
- viability, T/C [38]: 106%
- viability, T/C [39]: 76.2%
- viability, T/C [40]: 112%
- viability, T/C [41]: 71%
- viability, T/C [42]: 20.3%

Compound: COc1ccc([C@@H](O)c2cc(-c3ncnc4cc(N5CCOCC5)ccc34)c(F)cc2Cl)nn1
- viability, T/C (compound 0.0316 µM): 115% and 94.1% and 79.4%
- viability, T/C (compound 0.1 µM): 91.2% and 92.7% and 91%
- viability, T/C (compound 0.316 µM): 81.5% and 95.9% and 99.5%
- viability, T/C (compound 1 µM): 49.6% and 78.9% and 67.1%
- viability, T/C (compound 3.16 µM): 59.4% and 74.8% and 59%
- viability, T/C (compound 10 µM): 43.6% and 27.3% and 43.8%
- IC50 (curve of compound): 4.11 µM and 5.57 µM and > 10 µM

Compound: O=c1[nH]cc(F)c(=O)[nH]1
- viability, T/C (compound 0.0316 µM): 115% and 112% and 96.8%
- viability, T/C (compound 0.1 µM): 95.1% and 107% and 103%
- viability, T/C (compound 0.316 µM): 71.1% and 97.4% and 103%
- viability, T/C (compound 1 µM): 63.1% and 67.9% and 60.2%
- viability, T/C (compound 3.16 µM): 50.7% and 73.6% and 64%
- viability, T/C (compound 10 µM): 45.7% and 47.6% and 54.8%
- IC50 (curve of compound): 4.22 µM and > 10 µM

Compound: CNCc1ccc(-c2[nH]c3cc(F)cc4c3c2CCNC4=O)cc1
- viability, T/C (compound 0.0316 µM): 90.6% and 92.2% and 105%
- viability, T/C (compound 0.1 µM): 111% and 79.6% and 87%
- viability, T/C (compound 0.316 µM): 112% and 90% and 90.3%
- viability, T/C (compound 1 µM): 107% and 83.3% and 103%
- viability, T/C (compound 3.16 µM): 110% and 98.3% and 105%
- viability, T/C (compound 10 µM): 93.4% and 76.8% and 66.9%
- IC50 (curve of compound): > 10 µM

Compound: COc1cccc2c1C(=O)c1c(O)c3c(c(O)c1C2=O)CC(O)(C(=O)CO)CC3OC1CC(N)C(O)C(C)O1 (configuration not stated)
- viability, T/C (compound 0.0316 µM): 24.5% and 30.4% and 28.5%
- viability, T/C (compound 0.1 µM): 5.96% and 8.53% and 11.6%
- viability, T/C (compound 0.316 µM): 2.17% and 5.76% and 2.69%
- viability, T/C (compound 1 µM): 1.78% and 1.25% and 2.38%
- viability, T/C (compound 3.16 µM): 2.29% and 1.69% and 2.17%
- viability, T/C (compound 10 µM): 2.7% and 0.94% and 0.62%
- IC50 (curve of compound): < 0.0316 µM
